Test results published in US7150969B2 (Rosetta Inpharmatics LLC, priority 2004, dated 2006).

Assays:
[1] = biological target: T1, ACC1 (Homo sapiens, UniProt Q13085); assay: 14CO2 fixation ACC activity assay, ACC1; format: biochemical; details: 37° C., 40 minutes, pH 7.5, 20 mM citrate; read-out: Km of ACC1 against substrate
T1 construct: to produce a full length ACC1 cDNA clone; V5-His (vector pcDNA5/FRT/V5-His TOPO) (C); made in house; host or cells: Sf9 insect cells (baculovirus, pBacPAK9)
Description: ACC1 clone from Example 2 was digested with AvrII and PmeI restriction enzymes and then subcloned into pBacPAK9 (BD Biosciences, Mountainview, Calif.) transfer vector, which was then digested with XbaI and StuI for generating baculovirus. The viral particles were generated in Sf9 insect cells using the reagents and instructions provided by the BacPAK Baculovirus Expression System (BD Biosciences, Mountainview, Calif.).
The Sf9 cells were grown in Grace's Insect Cell Culture Medium (Invitrogen, Carlsbad, Calif.) containing 10% fetal bovine serum, 0.1 mg/ml kanamicin, and 0.1% PLURONIC® F-68 (Invitrogen, Carlsbad, Calif.) at 30° C. and 5% CO2. […]
(§1) The following protein extraction and purification procedures were performed at 4° C. unless noted. […] The remaining proteins were eluted from the column by imidazole at 0–500 mM, and the elution fractions were monitored by spectrophotometry at 280 nm. ACC1, ACC2, and ACC2sv1 protein and activity in each fraction were measured.
(§2) ACC1, ACC2, and ACC2sv1 activity were measured by a standard ^14CO2 fixation assay that measures the incorporation of [^14C]bicarbonate into [^14C]malonyl-CoA, and separates the product from unused substrate at the end of the reaction through acidification, which serves to both quench the reaction and remove residual radiolabeled substrate as ^14CO2. […]

[2] = biological target: T2, ACC2sv1 (Homo sapiens, UniProt O00763, V2141I); assay: 14CO2 fixation ACC activity assay, ACC2sv1; format: biochemical; details: 37° C., 40 minutes, pH 7.5, 20 mM citrate; read-out: Km of ACC2sv1 against substrate
T2 construct: to yield a full-length ACC2sv1 clone; made in house; host or cells: mouse mammary carcinoma cell line FM-3A (pEF vector, G418 selection)
T2 sequence (O00763 1-2256 isoform O00763-3 V1939I): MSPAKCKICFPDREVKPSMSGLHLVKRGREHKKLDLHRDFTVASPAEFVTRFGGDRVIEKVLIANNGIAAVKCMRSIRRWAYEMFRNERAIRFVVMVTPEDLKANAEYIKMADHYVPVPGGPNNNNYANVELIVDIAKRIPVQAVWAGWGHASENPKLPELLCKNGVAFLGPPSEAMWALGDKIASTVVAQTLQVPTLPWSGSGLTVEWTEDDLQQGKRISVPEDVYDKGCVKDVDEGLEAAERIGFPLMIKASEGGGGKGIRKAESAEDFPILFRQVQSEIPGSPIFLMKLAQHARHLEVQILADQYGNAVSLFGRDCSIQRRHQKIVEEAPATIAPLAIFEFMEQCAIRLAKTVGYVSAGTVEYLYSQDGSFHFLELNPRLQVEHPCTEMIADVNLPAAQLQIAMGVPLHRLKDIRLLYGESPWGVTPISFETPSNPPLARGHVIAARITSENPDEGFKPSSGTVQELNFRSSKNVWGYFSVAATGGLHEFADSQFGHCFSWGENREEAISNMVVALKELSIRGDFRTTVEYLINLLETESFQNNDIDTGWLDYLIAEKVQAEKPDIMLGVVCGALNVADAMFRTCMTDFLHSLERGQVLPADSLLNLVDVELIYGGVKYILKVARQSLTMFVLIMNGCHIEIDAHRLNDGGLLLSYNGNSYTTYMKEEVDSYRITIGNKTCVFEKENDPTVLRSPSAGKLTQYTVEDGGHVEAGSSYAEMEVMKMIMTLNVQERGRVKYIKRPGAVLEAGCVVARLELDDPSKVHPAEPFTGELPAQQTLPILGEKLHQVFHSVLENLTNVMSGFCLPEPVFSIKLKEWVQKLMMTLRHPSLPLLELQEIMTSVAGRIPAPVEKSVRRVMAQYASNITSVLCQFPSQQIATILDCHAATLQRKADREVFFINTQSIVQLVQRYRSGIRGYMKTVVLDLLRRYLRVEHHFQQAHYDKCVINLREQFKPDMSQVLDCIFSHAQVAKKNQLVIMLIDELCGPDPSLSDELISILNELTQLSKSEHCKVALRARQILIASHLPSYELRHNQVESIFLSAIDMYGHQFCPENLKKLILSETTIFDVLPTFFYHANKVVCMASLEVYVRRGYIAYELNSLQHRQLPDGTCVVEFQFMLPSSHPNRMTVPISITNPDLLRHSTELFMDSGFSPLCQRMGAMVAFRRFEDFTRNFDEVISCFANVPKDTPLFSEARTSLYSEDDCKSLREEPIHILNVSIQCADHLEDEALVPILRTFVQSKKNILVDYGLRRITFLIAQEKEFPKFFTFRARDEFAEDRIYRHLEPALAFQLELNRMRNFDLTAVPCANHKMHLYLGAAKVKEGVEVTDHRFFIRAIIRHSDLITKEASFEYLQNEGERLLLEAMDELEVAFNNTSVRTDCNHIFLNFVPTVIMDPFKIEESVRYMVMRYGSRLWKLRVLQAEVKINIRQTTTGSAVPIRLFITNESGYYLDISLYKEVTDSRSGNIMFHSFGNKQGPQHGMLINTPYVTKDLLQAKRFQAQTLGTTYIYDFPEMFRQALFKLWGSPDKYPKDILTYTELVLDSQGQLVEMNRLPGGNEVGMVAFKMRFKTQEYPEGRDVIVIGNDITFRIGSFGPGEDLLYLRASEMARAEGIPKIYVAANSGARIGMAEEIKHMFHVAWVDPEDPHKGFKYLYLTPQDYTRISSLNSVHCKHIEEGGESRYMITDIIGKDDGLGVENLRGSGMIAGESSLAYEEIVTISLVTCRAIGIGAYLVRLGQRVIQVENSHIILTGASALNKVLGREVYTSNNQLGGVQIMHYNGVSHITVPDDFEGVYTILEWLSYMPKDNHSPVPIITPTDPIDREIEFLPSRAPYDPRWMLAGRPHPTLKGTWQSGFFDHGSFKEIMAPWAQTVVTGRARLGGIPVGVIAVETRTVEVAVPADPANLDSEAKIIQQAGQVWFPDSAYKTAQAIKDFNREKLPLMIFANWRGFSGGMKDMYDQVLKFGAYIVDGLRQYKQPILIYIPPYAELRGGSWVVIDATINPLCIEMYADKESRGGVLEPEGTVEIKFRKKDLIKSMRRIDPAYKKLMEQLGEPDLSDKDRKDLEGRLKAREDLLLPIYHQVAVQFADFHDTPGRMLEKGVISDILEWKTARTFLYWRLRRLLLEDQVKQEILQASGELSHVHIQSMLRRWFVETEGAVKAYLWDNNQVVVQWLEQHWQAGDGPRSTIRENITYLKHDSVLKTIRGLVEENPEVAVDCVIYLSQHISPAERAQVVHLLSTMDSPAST
From the text: (§3) ACC2 and ACC2sv1 clones from cloning Method 2 of Example 2 were digested with AvrII and PmeI restriction enzymes and then subcloned into pEF cDNA expression vector (Invitrogen, Carlsbad, Calif.) which was digested by SpeI and EcoRV. The ACC2 and ACC2sv1 expression vectors were introduced into a mouse mammary carcinoma cell line FM-3A (RIKEN cell bank, #RCB0086) using the Lipofectaimine 2000 (Invitrogen, Carlsbad, Calif.) or Effectene Transfection Reagent (Qiagen, Hilden, Germany), according to manufacturer's instructions. […] ACC2 and ACC2sv1 protein levels were measured by Western blot analysis using HRP-conjugated streptavidin (Invitrogen, Carlsbad, Calif.). […]
as §1, §2

[3] = biological target: T3, ACC2 (Homo sapiens, UniProt O00763); assay: 14CO2 fixation ACC activity assay, ACC2; format: biochemical; details: 37° C., 40 minutes, pH 7.5, 20 mM citrate; read-out: Km of ACC2 against substrate
T3 construct: V5-His (vector pcDNA5/FRT/V5-His TOPO) (C); made in house; host or cells: mouse mammary carcinoma cell line FM-3A (pEF vector, G418 selection)
T3 sequence (O00763 whole entry): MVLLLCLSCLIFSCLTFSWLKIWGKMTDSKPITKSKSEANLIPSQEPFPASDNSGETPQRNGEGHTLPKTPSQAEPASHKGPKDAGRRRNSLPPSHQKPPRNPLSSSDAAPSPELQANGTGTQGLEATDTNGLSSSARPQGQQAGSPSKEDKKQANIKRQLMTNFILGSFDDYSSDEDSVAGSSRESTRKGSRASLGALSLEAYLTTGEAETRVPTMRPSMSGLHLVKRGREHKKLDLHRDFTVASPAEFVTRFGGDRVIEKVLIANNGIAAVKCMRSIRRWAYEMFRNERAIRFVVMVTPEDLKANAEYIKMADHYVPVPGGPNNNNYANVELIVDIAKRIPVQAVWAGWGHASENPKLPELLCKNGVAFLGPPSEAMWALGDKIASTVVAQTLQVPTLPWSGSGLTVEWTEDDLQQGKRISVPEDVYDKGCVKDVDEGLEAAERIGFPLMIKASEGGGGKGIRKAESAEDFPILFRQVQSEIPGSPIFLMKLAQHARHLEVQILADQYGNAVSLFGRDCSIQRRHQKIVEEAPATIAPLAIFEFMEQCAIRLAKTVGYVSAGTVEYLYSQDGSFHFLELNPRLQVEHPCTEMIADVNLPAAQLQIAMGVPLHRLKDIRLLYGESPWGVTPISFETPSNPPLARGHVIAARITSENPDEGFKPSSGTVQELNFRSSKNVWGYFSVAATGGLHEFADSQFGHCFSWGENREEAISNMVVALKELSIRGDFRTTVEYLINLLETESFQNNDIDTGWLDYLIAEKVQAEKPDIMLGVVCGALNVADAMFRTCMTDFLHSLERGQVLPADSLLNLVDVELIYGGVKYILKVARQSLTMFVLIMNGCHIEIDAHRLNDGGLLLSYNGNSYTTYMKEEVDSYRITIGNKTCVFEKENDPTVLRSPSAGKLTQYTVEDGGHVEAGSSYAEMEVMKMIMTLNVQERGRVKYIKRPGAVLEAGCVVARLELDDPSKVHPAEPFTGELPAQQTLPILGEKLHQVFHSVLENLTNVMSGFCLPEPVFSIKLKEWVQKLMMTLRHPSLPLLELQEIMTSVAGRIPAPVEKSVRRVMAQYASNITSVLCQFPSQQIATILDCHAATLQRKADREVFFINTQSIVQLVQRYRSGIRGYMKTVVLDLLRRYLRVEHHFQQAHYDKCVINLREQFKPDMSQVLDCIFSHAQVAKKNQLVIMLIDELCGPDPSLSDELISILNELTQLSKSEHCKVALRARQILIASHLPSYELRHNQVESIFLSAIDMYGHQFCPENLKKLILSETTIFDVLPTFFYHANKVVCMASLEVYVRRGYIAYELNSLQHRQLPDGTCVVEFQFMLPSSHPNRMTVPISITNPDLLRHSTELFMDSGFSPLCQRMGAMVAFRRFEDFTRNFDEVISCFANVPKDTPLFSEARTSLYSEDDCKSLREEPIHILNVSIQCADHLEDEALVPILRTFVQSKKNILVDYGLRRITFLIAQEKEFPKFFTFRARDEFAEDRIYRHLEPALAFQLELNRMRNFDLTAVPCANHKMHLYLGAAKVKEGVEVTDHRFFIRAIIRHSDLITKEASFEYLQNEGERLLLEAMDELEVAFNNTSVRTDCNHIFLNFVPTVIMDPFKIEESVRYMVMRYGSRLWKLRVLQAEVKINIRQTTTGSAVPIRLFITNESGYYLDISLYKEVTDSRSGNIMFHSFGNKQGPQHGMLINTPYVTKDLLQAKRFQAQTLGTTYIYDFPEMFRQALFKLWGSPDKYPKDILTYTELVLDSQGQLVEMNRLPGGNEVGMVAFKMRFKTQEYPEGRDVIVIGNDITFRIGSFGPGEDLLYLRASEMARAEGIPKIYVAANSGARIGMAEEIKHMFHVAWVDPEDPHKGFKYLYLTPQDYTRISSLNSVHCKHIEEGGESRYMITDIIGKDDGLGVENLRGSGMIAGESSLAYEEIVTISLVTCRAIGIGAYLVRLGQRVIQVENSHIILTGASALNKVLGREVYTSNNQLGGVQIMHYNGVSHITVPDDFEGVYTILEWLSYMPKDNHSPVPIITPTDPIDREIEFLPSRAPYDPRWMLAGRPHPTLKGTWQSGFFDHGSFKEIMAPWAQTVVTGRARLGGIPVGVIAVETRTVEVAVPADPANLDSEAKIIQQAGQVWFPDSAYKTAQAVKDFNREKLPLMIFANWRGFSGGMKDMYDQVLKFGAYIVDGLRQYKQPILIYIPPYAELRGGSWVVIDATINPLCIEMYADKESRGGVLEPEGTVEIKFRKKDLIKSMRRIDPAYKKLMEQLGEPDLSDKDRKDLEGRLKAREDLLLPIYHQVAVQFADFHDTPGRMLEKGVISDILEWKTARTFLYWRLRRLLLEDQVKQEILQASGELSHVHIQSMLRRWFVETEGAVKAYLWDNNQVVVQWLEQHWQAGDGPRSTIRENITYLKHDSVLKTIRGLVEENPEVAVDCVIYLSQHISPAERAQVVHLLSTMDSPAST
From the text: as §3, §1, §2

[4] = test system: ACC1; details: cited from earlier work
[5] = test system: ACC2; details: cited from earlier work
[6] = test system: ACC; details: ESP 55016 converted to ESP 55016-CoA; cited from earlier work
[7] = rat model of diabetic dyslipidemia; cited from earlier work
[8] = test system: fatty acid synthesis and fatty acid oxidation; details: cited from earlier work
[9] = test system: ACCs from plants; details: cited from earlier work

## Nc1ncnc2c1ncn2[C@@H]1O[C@H](COP(=O)(O)OP(=O)(O)OP(=O)(O)O)[C@@H](O)[C@H]1O [ATP]
[1]
  Km: 54 µM
[2]
  Km: 109 µM
[3]
  Km: 44 µM

## CCN(CC)C(=O)[C@@H]1CCCN(C2CCN(C(=O)c3c4ccccc4cc4ccccc34)CC2)C1 [CP-610431]
[4]
  Inhibition of ACC1: inhibit
[5]
  Inhibition of ACC2: inhibit

## O=C(c1c2ccccc2cc2ccccc12)N1CCC(N2CCC[C@@H](C(=O)N3CCOCC3)C2)CC1 [CP-640186]
[4]
  Inhibition of ACC1: inhibit
[5]
  Inhibition of ACC2: inhibit

## CC(C)(CCCCCC(O)CCCCCC(C)(C)C(=O)SCCNC(=O)CCNC(=O)[C@H](O)C(C)(C)COP(=O)(O)OP(=O)(O)OC[C@H]1O[C@@H](n2cnc3c(N)ncnc32)[C@H](O)[C@@H]1OP(=O)(O)O)C(=O)O (some centres unmarked) [ESP 55016-CoA]
[6]
  Inhibition of ACC activity: directly inhibits

## CC(C)(CCCCCC(O)CCCCCC(C)(C)C(=O)O)C(=O)O [ESP 55016]
[7]
  Serum lipid levels: favorably alter
[8]
  Fatty acid oxidation: enhanced
  Fatty acid synthesis: inhibited

## O=C(O)O [HCO3]
[1]
  Km: 6470 µM
[2]
  Km: 6510 µM
[3]
  Km: 2890 µM

## CC(Oc1ccc(Oc2ccc(Cl)cc2Cl)cc1)C(=O)O (centres unmarked) [diclofop]
[9]
  Inhibition of ACCs from plants: potent inhibitors

## CC(Oc1ccc(Oc2ncc(C(F)(F)F)cc2Cl)cc1)C(=O)O (centres unmarked) [haloxyfop]
[9]
  Inhibition of ACCs from plants: potent inhibitors

## CCC/C(=N\OCC)C1=C(O)CC(CC(C)SCC)CC1=O (centres unmarked) [sethoxydim]
[9]
  Inhibition of ACCs from plants: potent inhibitors
